# Measured values as given in patent publication EP1229025A1, “NOVEL QUINAZOLINE DERIVATIVES” (Japan Energy Corporation, priority 1999, dated 2001).
# Tested on: TNF-α production
# Assay: TNF-α production inhibiting test using human PBMC (LPS stimulus, ELISA)
# Assay type: cell-based
# Details: LPS 10 ng/ml, 16 hours, ELISA of culture supernatants
# Description: Example 145: TNF-α production inhibiting test using human PBMC (peripheral blood mononuclear cells)
# Preparation of human PBMC
# The blood of a healthy person was taken with a vacuum blood-collecting tube (Nipro neotube) and diluted up to two-fold with physiological saline (Otsuka Pharmaceuticals). To the diluted blood was added 6% dextran T-500 (prepared after dissolution in physiological saline (Otsuka Pharmaceuticals) and sterilization with an autoclave) so as to make a final concentration of 1%. The solution was subjected to tumble mixing and allowed to stand at room temperature for 30 minutes to precipitate the erythrocytes. The supernatant was collected and subjected to centrifugation at 20 °C and at 1,500 rpm for 10 minutes. The cells were suspended in 3 ml of RPMI1640 culture medium (Asahi Technogllas) and overlaid on the solution surface of 3 ml Lymphoprep (NYCOMED). Further, with 1.5 ml of RPMI1640 culture medium being added to the tube which had contained the cell suspension liquid, the cells attached to the tube, which had remained uncollected, were suspended for collection and overlaid on the Lymphoprep previously mentioned. This operation was repeated again. After centrifugation at 20 °C and at 2,000 rpm for 30 minutes, there was collected a fraction of peripheral blood mononuclear cells present in the boundary surface between the Lymphoprep and the RPMI1640 culture medium. The cells were washed twice with 10 ml RPMI1640 culture medium to remove the Lymphoprep and then suspended in a RPMI1640 culture medium added with 10% bovine fetal serum (IRVINE SCIENTIFIC), 100 U/ml penicillin and 100 µg/ml streptomycin (hereinafter referred to as cRPMI1640 culture medium). The number of the cells was measured by Tuerk dying, and the cells, after adjustment to 3 × 10^6 cells/ml, were planted in 100 µl/well on a 96-well plate (FALCON). The cells were cultured at 37 °C under 5%CO2 atmosphere for about 5 hours.
# Induction of TNF-α production by LPS stimulus
# LPS (E.coli 0111:B4, DIFCO), which had been prepared to 10 mg/ml with water and kept at -20, was diluted to 100 µg/ml with cRPMI1640 culture medium and subjected to sterile filtration. The 100 µg/ml LPS was diluted with cRPMI1640 culture medium to prepare 20 ng/ml LPS. A compound to be tested which was dissolved in DMSO at 1,000-fold concentration was diluted to 500-fold with cRPMI1640 culture medium containing 20 ng/ml LPS and added in 100 µl/well to the cells which had been planted on the previously mentioned 96-well plate (final concentration of LPS: 10 ng/ml). For use as the control group, the solutions were made by diluting DMSO of the same volume as in the test compounds with cRPMI1640 culture medium containing 20 ng/ml LPS, and they were added to the cells. These cells were cultured at 37 °C under 5%CO2 atmosphere for 16 hours.
# Determination of TNF-α activity (ELISA method)
# To the 96-well plate the mouse anti-human TNF-α antibody (prepared to 2 µg/ml with Coating buffer*^1) was added so as to make 100 µl/well and allowed to stand at 4 °C overnight. After 5-times washing with Wash buffer*^2 (300µl/well), the Blocking buffer*^3 was added to the solutions, which were allowed to stand 37 °C for 2 hours. The culture supernatants were diluted up to 5-fold in the plate (supernatant 20 µl being added to 80 µl of cRPMI1640 culture medium). Simultaneously, for using for a calibration curve, a series of dilution of recombinant human TNF-α was prepared arid allowed to stand 37 °C for 1 hour. After 5-times washing with Wash buffer (300 µl /well), biotinylated rabbit anti-human TNF-α antibody (prepared to 0.25 µg/ml with Antibody diluent*^4) was added so as to make 100 µl /well and allowed to stand at 37 °C for 1 hour. After 5-times washing with Wash buffer (300 µl /well), Streptavidin-Horseradish peroxidase(prepared to 1:4000 with Antibody diluent) was added to make 100 µl /well and allowed to stand at 37 °C for 15 minutes. […]
row,IC50,Structure (SMILES)
1,3500 nM,"O=[N+]([O-])c1cc2c(NCCc3ccncc3)ncnc2cc1N1CCNCC1 [Example 58, 6-nitro-7-(piperazin-1-yl)-4-[2-(4-pyridyl)ethylamino]quinazoline]"
2,2500 nM,"O=[N+]([O-])c1cc2c(NCCc3ccc(O)cc3)ncnc2cc1N1CCNCC1 [Example 80, 4-[2-(4-hydroxyphenyl)ethylamino]-6-nitro-7-(piperazin-1-yl)quinazoline]"
3,400 nM,"O=[N+]([O-])c1cc2c(NCCCc3ccccc3)ncnc2cc1N1CCNCC1 [Example 54, 6-nitro-4-[3-(phenyl)propylamino]-7-(piperazin-1-yl)quinazoline]"
4,400 nM,"O=[N+]([O-])c1cc2c(NCc3ccccc3)ncnc2cc1N1CCNCC1 [Example 18, 4-(benzylamino)-6-nitro-7-(piperazin-1-yl)quinazoline]"
5,800 nM,"O=[N+]([O-])c1cc2c(NCCc3ccc(Cl)cc3)ncnc2cc1N1CCNCC1 [Example 1, 4-[2-(4-chlorophenyl)ethylamino]-6-nitro-7-(piperazin-1-yl)quinazoline]"
6,7200 nM,"CC(CNc1ncnc2cc(N3CCNCC3)c([N+](=O)[O-])cc12)c1ccccc1 (stereo not drawn) [Example 82, 4-(2-methyl-2-phenylethylamino)-6-nitro-7-(piperazin-1-yl)quinazoline]"
7,1100 nM,"O=[N+]([O-])c1cc2c(NCCc3ccccn3)ncnc2cc1N1CCNCC1 [Example 56, 6-nitro-7-(piperazin-1-yl)-4-[2-(2-pyridyl)ethylamino]quinazoline]"
8,500 nM,"O=[N+]([O-])c1cc2c(NCc3cccc4ccccc34)ncnc2cc1N1CCNCC1 [Example 59, 4-[(1-naphthyl)methylamino]-6-nitro-7-(piperazin-1-yl)quinazoline]"
9,600 nM,"O=[N+]([O-])c1cc2c(NCc3ccc(Cl)cc3)ncnc2cc1N1CCNCC1 [Example 60, 4-(4-chlorobenzylamino)-6-nitro-7-(piperazin-1-yl)quinazoline]"
10,600 nM,"O=[N+]([O-])c1cc2c(NCCc3ccccc3Cl)ncnc2cc1N1CCNCC1 [Example 70, 4-[2-(2-chlorophenyl)ethylamino]-6-nitro-7-(piperazin-1-yl)quinazoline]"
11,500 nM,"O=[N+]([O-])c1cc2c(NCCc3cccs3)ncnc2cc1N1CCNCC1 [Example 42, 6-nitro-7-(piperazin-1-yl)-4-[2-(2-thienyl)ethylamino]quinazoline]"
12,1900 nM,"Cc1ccc(CCNc2ncnc3cc(N4CCNCC4)c([N+](=O)[O-])cc23)cc1 [Example 75, 4-[2-(4-methylphenyl)ethylamino]-6-nitro-7-(piperazin-1-yl)quinazoline]"

# Second part, the compound before the results:
row,Structure (SMILES),IC50
1,"Fc1ccc(CCNc2ncnc3cc(N4CCNCC4)c(F)cc23)cc1 [Example 117, 6-fluoro-4-[2-[(4-fluoro)phenyl]ethylamino]-7-(piperazin-1-yl)quinazoline]",4700 nM
2,"O=[N+]([O-])c1cc2c(NC3CCN(Cc4ccccc4)CC3)ncnc2cc1N1CCNCC1 [Example 86, 4-[(1-benzyl-4-piperidyl)amino]-6-nitro-7-(piperazin-1-yl)quinazoline]",6400 nM
3,"O=[N+]([O-])c1cc2c(NCc3ccc(F)c(F)c3)ncnc2cc1N1CCNCC1 [Example 128, 4-[(3,4-difluoro)benzylamino]-6-nitro-7-(piperazin-1-yl)quinazoline]",700 nM
4,"NCC1CCN(c2cc3ncnc(NCCc4ccc(Cl)cc4)c3cc2[N+](=O)[O-])CC1 [Example 9, 7-(4-aminomethylpiperidin-1-yl)-4-[2-(4-chlorophenyl)ethylamino]-6-nitroquinazoline]",1300 nM
5,O=[N+]([O-])c1cc2c(NCCc3ccc4c(c3)OCO4)ncnc2cc1N1CCNCC1 [Example 125],3300 nM
6,"COc1ccc(N2CCN(c3ncnc4cc(N5CCNCC5)c([N+](=O)[O-])cc34)CC2)cc1 [Example 99, 4-[(4-methoxyphenyl)piperazinyl]-6-nitro-7-piperazinylquinazoline]",900 nM
7,"COc1ccc(CNc2ncnc3cc(N4CCNCC4)c([N+](=O)[O-])cc23)cc1OC [Example 68, 4-(3,4-dimethoxylbenzylamino)-6-nitro-7-(piperazin-1-yl)quinazoline]",2400 nM
8,"Fc1ccc(CNc2ncnc3cc(N4CCNCC4)c(F)cc23)cc1 [Example 113, 6-fluoro-4-(4-fluorobenzylamino)-7-(piperazin-1-yl)quinazoline]",900 nM
9,"O=[N+]([O-])c1cc2c(N3CCN(c4ccc(Cl)cc4)CC3)ncnc2cc1N1CCNCC1 [Example 101, 4-[(4-chlorophenyl)piperazinyl]-6-nitro-7-piperazinylquinazoline]",1400 nM
10,"O=[N+]([O-])c1cc2c(Nc3ccc4c(c3)OCO4)ncnc2cc1N1CCNCC1 [Example 124, 4-[(3,4-methylenedioxy)anilino]-6-nitro-7-(piperazin-1-yl)quinazoline]",1700 nM
11,"O=[N+]([O-])c1cc2c(Nc3ccc(F)cc3)ncnc2cc1N1CCNCC1 [Example 123, 4-[(4-fluoro)anilino]-6-nitro-7-(piperazin-1-yl)quinazoline]",600 nM
12,"Fc1cc2c(NCc3ccc4c(c3)OCO4)ncnc2cc1N1CCNCC1 [Example 114, 6-fluoro-4-[3,4-(methylenedioxy)benzylamino]-7-(piperazin-1-yl)quinazoline]",600 nM
13,"O=[N+]([O-])c1cc2c(NCc3ccc(C(F)(F)F)cc3)ncnc2cc1N1CCNCC1 [Example 63, 6-nitro-7-(piperazin-1-yl)-4-[4-(1,1,1-trifluoiomethyl)benzylamino]quinazoline]",1600 nM
14,"O=[N+]([O-])c1cc2c(N3CCN(c4ccccc4)CC3)ncnc2cc1N1CCNCC1 [Example 98, 6-nitro-4-(4-phenylpiperazinyl)-7-piperazinylquinazoline]",2100 nM
15,"Cc1ccc(CNc2ncnc3cc(N4CCNCC4)c([N+](=O)[O-])cc23)cc1 [Example 64, 4-(4-methylbenzylamino)-6-nitro-7-(piperazin-1-yl)quinazoline]",400 nM
16,"Fc1cc2c(NCCc3ccc4c(c3)OCO4)ncnc2cc1N1CCNCC1 [Example 118, 6-fluoro-4-[2-[(3,4-methylenedioxy)phenyl]ethylamino]-7-(piperazin-1-yl)quinazoline]",2200 nM
17,"CN(Cc1ccc2c(c1)OCO2)c1ncnc2cc(N3CCNCC3)c(F)cc12 [Example 122, 6-fluoro-4-[[N-methyl-N'-(3,4-methylenedioxybenzyl)]amino]-7-(piperazin-1-yl)quinazoline]",600 nM
18,"O=[N+]([O-])c1cc2c(NCc3ccc4c(c3)OCCO4)ncnc2cc1N1CCNCC1 [Example 130, 4-[(3,4-ethylenedioxy)benzylamino]-6-nitro-7-(piperazin-1-yl)quinazoline]",2500 nM
19,"Fc1cc2c(NCCCc3ccc4c(c3)OCO4)ncnc2cc1N1CCNCC1 [Example 120, 6-fluoro-4-[3-[(3,4-methylenedioxy)phenyl]propylamino]-7-(piperazin-1-yl)quinazoline]",2000 nM
20,"NC1CCN(c2cc3ncnc(NCCc4ccc(Cl)cc4)c3cc2[N+](=O)[O-])CC1 [Example 8, 7-(4-aminopiperidin-1-yl)-4-[2-(4-chlorophenyl)ethylamino]-6-nitroquinazoline]",1400 nM
21,"O=CN1CCN(c2cc3ncnc(NCCc4ccc(Cl)cc4)c3cc2[N+](=O)[O-])CC1 [Example 6, 4-[2-(4-chlorophenyl)ethylamino]-7-(4-formylpiperazin-1-yl)-6-nitroquinazoline]",2500 nM
